# Test results from PMC3435281 (PLoS ONE, 2012).
# pIC50: −log10 of the molar value.
# What was measured:
# [1] = biological target: AHR^b isoform (C57BL/6J hepatic cytosol) (Mus musculus, UniProt P30561); details: read-out: IC50, competitive binding; C57BL/6J cytosol, 1 nM radioligand 125IBr2N3DpD
# rat AHR^b (5L) = biological target: T1, rat AHR^b (5L) (Rattus norvegicus, UniProt P41738); experiment: EROD activity in rat hepatoma 5L cells; format: cell-based; details: 5L cell line, 40 hours
# T1 construct: endogenous in cells; host or cells: rat hepatoma 5L cells
# T1 sequence (P41738 10-853): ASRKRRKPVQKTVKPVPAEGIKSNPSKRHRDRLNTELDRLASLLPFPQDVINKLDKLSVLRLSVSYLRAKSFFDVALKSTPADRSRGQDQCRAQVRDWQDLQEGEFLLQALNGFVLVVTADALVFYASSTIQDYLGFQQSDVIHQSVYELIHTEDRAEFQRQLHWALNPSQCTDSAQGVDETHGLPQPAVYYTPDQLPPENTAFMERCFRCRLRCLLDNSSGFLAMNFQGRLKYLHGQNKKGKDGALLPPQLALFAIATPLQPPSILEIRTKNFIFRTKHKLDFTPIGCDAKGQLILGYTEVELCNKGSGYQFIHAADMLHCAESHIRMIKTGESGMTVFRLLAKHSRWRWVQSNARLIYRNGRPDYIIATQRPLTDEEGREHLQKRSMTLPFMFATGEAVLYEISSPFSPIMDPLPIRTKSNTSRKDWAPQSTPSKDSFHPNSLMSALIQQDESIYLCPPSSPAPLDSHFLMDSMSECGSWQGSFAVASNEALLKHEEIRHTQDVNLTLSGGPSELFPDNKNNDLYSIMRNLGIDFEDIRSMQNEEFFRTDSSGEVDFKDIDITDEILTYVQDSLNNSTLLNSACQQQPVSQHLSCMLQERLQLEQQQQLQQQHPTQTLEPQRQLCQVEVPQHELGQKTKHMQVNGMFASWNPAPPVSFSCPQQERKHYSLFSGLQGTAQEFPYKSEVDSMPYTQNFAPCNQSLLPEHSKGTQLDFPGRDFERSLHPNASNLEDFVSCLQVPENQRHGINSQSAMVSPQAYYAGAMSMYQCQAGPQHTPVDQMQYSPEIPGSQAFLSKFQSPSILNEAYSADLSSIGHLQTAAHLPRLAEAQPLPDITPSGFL
# Procedure: (§1) We utilized the wild type rat hepatoma cell line, 5L, which harbors the high affinity AHR isoform, and our newly created AHR^d-15 cell line. […] Groups of control mice were given corn oil alone or BNF at the concentration of 120 mg/kg.
# (§2) Figure 3 In Vitro dose response curves. A. Rat hepatoma cell lines bearing the murine AHR^d (AHR^d-15) or the rat AHR^b (5L) were incubated with increasing doses of TCDD in 96-well plates. After 40 hours, EROD activity was performed from whole cell lysate. (n = 3). […] (n = 3). C. Same assay as in A, with increasing doses of BNF. (n = 2). […] Following 48 hours, hepatic microsomal proteins were isolated and used for the assessment of EROD activity. Animals were treated in groups of 4. Error bars: S.D.
# (§3) High-throughput analysis of EROD activity was assayed by adapting a protocol that was described elsewhere, [63]. Briefly, cells were seeded into 96-well plates at ∼ 60% density and treated with the test compounds for 36 hours. The cells were washed with PBS and lysed with 30 µL water and a cycle of freeze-thaw. To each well, 150 µL of 50 mM Hepes buffer containing 26.7 µM dicumarol and 13.3 µM ethoxyresorufin were added. The samples were incubated at 30°C for 20 minutes, and 50 µL of 0.5 mM β-NADPH were added to initiate the reaction. Fluorescence of the resorufin product was detected using the 544 nm excitation and 590 nm emission wavelength filter set.
# murine AHR^d = biological target: T2, murine AHR^d (Mus musculus, UniProt P30561, A375V); experiment: EROD activity in AHR^d-15 cells (rat hepatoma BP8 stably transfected with AHR^d)
# T2 sequence (P30561 10-848 A375V): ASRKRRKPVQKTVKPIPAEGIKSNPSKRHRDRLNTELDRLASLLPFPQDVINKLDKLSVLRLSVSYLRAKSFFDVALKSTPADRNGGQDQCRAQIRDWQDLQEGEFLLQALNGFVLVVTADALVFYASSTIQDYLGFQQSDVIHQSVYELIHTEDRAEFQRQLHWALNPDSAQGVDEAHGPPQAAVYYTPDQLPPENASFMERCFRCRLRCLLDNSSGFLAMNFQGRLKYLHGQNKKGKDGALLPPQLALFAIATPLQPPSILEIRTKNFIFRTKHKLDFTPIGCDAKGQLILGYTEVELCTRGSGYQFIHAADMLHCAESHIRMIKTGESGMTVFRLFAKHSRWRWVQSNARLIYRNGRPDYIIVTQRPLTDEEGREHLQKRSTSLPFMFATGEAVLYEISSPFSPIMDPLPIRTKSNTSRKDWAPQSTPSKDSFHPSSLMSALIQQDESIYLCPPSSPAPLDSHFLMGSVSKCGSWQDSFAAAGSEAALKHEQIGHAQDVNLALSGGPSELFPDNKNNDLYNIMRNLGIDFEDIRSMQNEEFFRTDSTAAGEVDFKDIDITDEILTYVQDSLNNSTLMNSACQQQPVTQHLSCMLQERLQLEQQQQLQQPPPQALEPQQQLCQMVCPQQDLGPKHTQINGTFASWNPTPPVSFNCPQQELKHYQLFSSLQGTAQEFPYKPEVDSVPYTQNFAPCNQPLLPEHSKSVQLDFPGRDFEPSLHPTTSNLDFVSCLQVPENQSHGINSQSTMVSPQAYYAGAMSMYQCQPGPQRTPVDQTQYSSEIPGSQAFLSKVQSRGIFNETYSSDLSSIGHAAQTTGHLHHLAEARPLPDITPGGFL
# Excerpt: The 100 “hit compounds” from the primary screen were subsequently screened for their capacity to activate the low-affinity murine AHR^d receptor isoform using the activity of the endogenous Cyp1a1 gene as a readout. To this end, we established a hepatoma cell line that expresses the AHR^d receptor isoform derived from the DBA/2J mouse. An AHR^d-expressing cell line was generated by stably transfecting the AHR^d cDNA into the rat hepatoma AHR-deficient cell line, BP8 [15]. After stable selection with G418, a subclone (AHR^d-15) was analyzed for receptor expression and function. […] To confirm that the AHR^d-15 clone expressed a functional low affinity AHR^d isoform, we examined the receptor-mediated response to the prototype agonists, TCDD and β-naphthoflavone (BNF).
# To test the ability of the 100 AHR inducers to activate the AHR^d-15 cells, they were treated with each of the compounds at the dose of 1 µM, for 36 hours in 96-well plates.
# as §2
# The open reading frame of the AHR^d gene (PL2047) was amplified by PCR using oligos OL5127 (5′-[…]-3′) and OL5128 (5′-[…]-3′). The product was ligated into the pTARGET™ mammalian expression vector (Promega, Madison, WI). The resulting plasmid was transfected into the AHR-deficient cell line, BP8 [15], using Effectene transfection reagent (Qiagen Inc., Valencia, CA). Stable integrants were selected with 6 mg/ml of G418 for 2 weeks, beginning at 48-hours post-transfection. Clones derived from single cells were screened for their response to nanomolar doses of dioxin or micromolar doses of BNF, as measured by ethoxyresorufin O-deethylase (EROD) activity. […] The validated cell line used in these studies was designated line AHR^d-15.
# as §3
# DBA/2J mice (AHR^d) = experiment: In vivo hepatic microsomal EROD activity, DBA/2J; set-up: species or system mouse; details: oral 120 mg/kg, 48 hours
# Procedure: as §1, §2
# Hepatic microsomes were prepared by homogenizing 0.5 g of liver tissue in 5 mL of MENG buffer (25 mM buffer sodium morpholinopropane sulfonate buffer (pH 7.5) containing 0.025% (w/v) NaN3, 1 mM EGTA and 10% (v/v) glycerol). The homogenate was subjected to centrifugation at 10,000×g for 20 minutes, followed by centrifugation of the supernatant for 1 hour at 100,000×g and 4°C. The pellet was dissolved in 15 mM Tris-HCl buffer containing 250 mM sucrose (pH 8.0) and aliquots were stored at −80°C. Protein concentration was determined using the Bicinchoninic Acid Protein Assay Reagent (Pierce Biotechnology, Rockford, IL). […]
# [2] = test system: AHR (101L-hepatoma cells); experiment: Antagonism of DRE-luciferase activation by CH223191; format: cell-based, human
# Sequence of AHR^b isoform (C57BL/6J hepatic cytosol) (P30561 10-805): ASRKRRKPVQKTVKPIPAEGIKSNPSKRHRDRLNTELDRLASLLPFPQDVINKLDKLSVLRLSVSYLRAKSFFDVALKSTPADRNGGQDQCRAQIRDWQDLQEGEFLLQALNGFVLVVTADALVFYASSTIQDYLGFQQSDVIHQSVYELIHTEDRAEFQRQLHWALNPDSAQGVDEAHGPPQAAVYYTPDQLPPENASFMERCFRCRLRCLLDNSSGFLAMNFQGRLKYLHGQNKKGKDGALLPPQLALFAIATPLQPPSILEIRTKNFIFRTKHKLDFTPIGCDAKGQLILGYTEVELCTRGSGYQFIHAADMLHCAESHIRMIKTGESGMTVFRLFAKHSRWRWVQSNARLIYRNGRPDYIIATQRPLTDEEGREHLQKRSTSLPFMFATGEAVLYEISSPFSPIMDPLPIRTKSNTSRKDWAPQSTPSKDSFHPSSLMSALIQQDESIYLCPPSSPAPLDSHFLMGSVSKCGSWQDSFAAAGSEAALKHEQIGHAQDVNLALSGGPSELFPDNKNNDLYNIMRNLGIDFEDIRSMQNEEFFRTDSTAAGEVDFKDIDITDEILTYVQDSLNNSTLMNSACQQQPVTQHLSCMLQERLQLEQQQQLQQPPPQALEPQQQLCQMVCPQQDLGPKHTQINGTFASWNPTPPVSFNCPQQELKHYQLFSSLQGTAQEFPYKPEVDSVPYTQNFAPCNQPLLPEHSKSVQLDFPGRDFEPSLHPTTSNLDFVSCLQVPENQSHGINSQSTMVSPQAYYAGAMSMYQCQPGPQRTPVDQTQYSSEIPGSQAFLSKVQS
smiles,measurement,setting,value
"c1ccc2cc3c(ccc4ccccc43)cc2c1 [1,2-Benzanthracene]",pIC50,[1],7.86
"O=c1cc(-c2ccccc2)oc2ccc3ccccc3c12 [BNF, β-naphthoflavone]",EROD response,rat AHR^b (5L),strong response
same,EROD response,"murine AHR^d; AHR^d-15 cell line, 40 hours",no response
same,AHR-mediated response (EROD activity),"murine AHR^d; AHR^d-15 cells, doses as high as 10 µM, 36 hours",inactive
same,hepatic EROD activity,DBA/2J mice (AHR^d),dramatically decreased in vivo activity
Cc1ccccc1N=Nc1ccc(NC(=O)c2ccnn2C)c(C)c1 [CH223191],inhibition of SU5416-induced DRE activation,"[2]; antagonist 10 µM, titration of SU5416, 4 hours",only a small amount of inhibition
same,inhibition of TCDD-induced DRE activation,"[2]; titration of antagonist with 1 nM TCDD, 4 hours",inhibited
same,inhibition of SU5416-induced DRE activation,"[2]; titration of antagonist with 100 nM SU5416, 4 hours",minimal inhibition
